Common to all, as to test: Cu(II)-VBIDA affinity for the tag (Table 1)
Common to all, as to format: binding
Holding throughout (details): r^2 ≈ 0.98

In test [1] the target is green fluorescent protein (GFP) variant GFP30, tag MEFHAHHLH, SEQ ID NO: 13. An excerpt:
(§1) In this figure the kD data is given in millimolar not micromolar units.
(§2) These values are suitably low for such tags to be used in a separation process with binding of target at high enough affinity to allow for ease of washing and recovery.

Test [2] deals with green fluorescent protein (GFP), 6His-GFP, tag […], SEQ ID NO: 14.
Description: as §1, §2

Test [3] deals with green fluorescent protein (GFP) variant GFP27, tag MEFHWVARH, SEQ ID NO: 10.
Description: as §1, §2

Test [4] has as its target green fluorescent protein (GFP) variant GFP25, tag MEFHRPMRH, SEQ ID NO: 8.
Description: as §1, §2

For test [5], the target named is green fluorescent protein (GFP), n-GFP (native, N-terminus MEFELGT, SEQ ID NO: 1).
Description: as §1

Test [6] deals with green fluorescent protein (GFP) variant GFP2, tag MEFHSVGMH, SEQ ID NO: 3.
Description: as §1

Test [7] concerns the target green fluorescent protein (GFP) variant GFP12, tag MEFHSVGLH, SEQ ID NO: 6.
Description: as §1

Test [8] deals with green fluorescent protein (GFP) variant GFP28, tag MEFHITGHH, SEQ ID NO: 11.
Description: as §1

The target in test [9] is green fluorescent protein (GFP) variant GFP29, tag MEFHHSLVH, SEQ ID NO: 12.
Description: as §1

For test [10], the target named is green fluorescent protein (GFP) variant GFP24, tag MEFHLRARH, SEQ ID NO: 7.
Description: as §1

In the case of `C=Cc1ccc(CN(CC(=O)O)CC(=O)O)cc1.[Cu+2]` [Cu(II)-VBIDA, N-(4-vinyl)-benzyl iminodiacetic acid], the Kd in test [1] stood at 90 µM; in test [2], 70 µM; in test [3], 120 µM; in [4], 140 µM; in [5], 1.68 mM; in test [6], 1.2 mM. Moreover, the Kd in [7] is 200 µM; in test [8], 110 µM; in test [9], 100 µM; in test [10], 150 µM.

Broadly, the Kd is the concentration at which binding is half-saturated. Read a low Kd as tighter binding.

The record behind these values is patent US20110053225A1, “MULTI[…]” (GE […]-SCIENCES AB, priority 2008, published 2011).
